# Data as given in patent US20160024535A1, “ELECTROCHEMICAL DETOXIFICATION METHOD OF WOOD-BASED HYDROLYSATE FOR PRODUCING BIOCHEMICALS OR BIOFUELS, AND DETOXIFIED WOOD-BASED HYDROLYSATE” (Korea Institute of Science and Technology, priority 2013, published 2016).
# Key:
# [1] = Electrochemical treatment of medium, removal rate of phenolic and furanic compounds; format: physicochemical; conditions: 0.5 g/L added to medium; for Removal rate: wt %
# Protocol: In order to measure the removal rate of phenolic and furanic compounds, p-coumaric acid, ferulic acid, syringaldehyde and vanillin were selected as phenolic compounds and furfural and 5-hydroxymethylfurfural were selected as furanic compounds. After adding 0.5 g/L of each of the selected 6 inhibitors to a medium, electric current was flown at each optimum oxidation voltage and then removal rate was measured.
# (§1) A potentiostat (WonA Tech, WMPG 1000) was used for the electrochemical treatment of the medium. Graphite felt was used as an electrode. Specifically, the electrochemical treatment was conducted for by 5 hours at an oxidation peak voltage of each fermentation inhibitor (800 mV for coumaric acid and ferulic acid, 2 V for syringaldehyde and vanillin, 1.8 V for furfural and 5-hydroxyfurfural). Then, the fermentation inhibitors were removed using such methods as gravitational sedimentation, centrifugation, membrane separation, etc. The percentage of the removal rate is wt %.
# (§2) After the culturing was completed, the concentrations of phenolic and furanic compounds, sugars and acetic acid were measured for each culture. The concentration was analyzed by liquid chromatography (Agilent model 1200). The phenolic compounds were analyzed using a diode array detector and a Zorbax eclipse XDB-C18 column (150×4.6 mm, 3.5 μm). The sugars and acetic acid were analyzed using a refractive index detector and an Aminex HPX-87H column (300×7.8 mm). The growth of the microorganisms was analyzed by measuring absorbance at 600 nm with a spectrophotometer (UVmini-1240, Shimadzu). The concentration of butyric acid and butanol was analyzed using a gas chromatography system (Agilent technology 6890N Network GC system) equipped with a flame ionized detector and an HP-INNOWax column (30 m×250 μm×0.25 μm, Agilent Technologies).
# [2] = Cyclic voltammetry, oxidation peak voltage; format: physicochemical
# Protocol: First, the optimum voltage for removing each phenolic compound through the electrochemical treatment was determined by cyclic voltammetry. […] In FIG. 1, the abscissa represents voltage (V) and the ordinate represents current (A). […] This means that each of the phenolic compounds is removed by oxidation at the intrinsic voltage.
# as §1
# Clostridium beijerinckii = test: Production of butanol by Clostridium beijerinckii; format: cell-based; conditions: 0.5 g/L in medium, after electrochemical treatment, FIG. 5
# Source text: (§3) As a butyric acid fermentation medium, a medium containing 20 g of glucose, 5 g of yeast extract, 0.2 g of magnesium sulfate, 0.01 g of manganese sulfate, 0.01 g of ferric sulfate, 0.01 g of sodium chloride, 0.5 g of monopotassium phosphate (KH2PO4), 0.5 g of dipotassium phosphate (K2HPO4) and 2 g of ammonium acetate per 1 L of the medium was used. As a butanol fermentation medium, a medium containing 20 g of glucose, 1 g of yeast extract, 0.2 g of magnesium sulfate, 0.01 g of manganese sulfate, 0.01 g of ferric sulfate, 0.01 g of sodium chloride, 0.5 g of monopotassium phosphate (KH2PO4), 0.5 g of dipotassium phosphate (K2HPO4) and 2 g of ammonium acetate per 1 L of the medium was used. Each medium was gas-substituted with argon gas and sterilized at 121° C. for 15 minutes before the experiment. […]
# as §2, with “The concentration of butyric acid and butanol was analyzed using a gas chromatography system (Agilent technology 6890N Network GC system) equipped with a flame ionized detector and an HP-INNOWax column (30 m×250 μm×0.25 μm, Agilent Technologies).” left out
# [3] = tested on: Clostridium tyrobutyricum; test: Cellular growth of Clostridium tyrobutyricum (absorbance at 600 nm); format: cell-based; conditions: 0.5 g/L in medium, before electrochemical treatment, FIG. 2, read-out: inhibition of the growth of the microorganisms
# Source text: as §3
# as §2, with “The concentration of butyric acid and butanol was analyzed using a gas chromatography system (Agilent technology 6890N Network GC system) equipped with a flame ionized detector and an HP-INNOWax column (30 m×250 μm×0.25 μm, Agilent Technologies).” left out
# [4] = tested on: Clostridium tyrobutyricum; test: Production of butyric acid by Clostridium tyrobutyricum; format: cell-based; conditions: 0.5 g/L in medium, after electrochemical treatment at optimum voltage, FIG. 3
# Source text: as §3
# as §2, with “The concentration of butyric acid and butanol was analyzed using a gas chromatography system (Agilent technology 6890N Network GC system) equipped with a flame ionized detector and an HP-INNOWax column (30 m×250 μm×0.25 μm, Agilent Technologies).” left out
# [5] = 1st treatment, 5 hours at oxidation peak voltage
Structure (SMILES),"Post-treatment concentration [1, 5] [g/L]","Removal rate [1, 5] [%]",Post-treatment concentration ([1]; 2nd treatment) [g/L],Removal rate ([1]; 2nd treatment) [%],oxidation peak voltage [2],decrease in butanol production recovered by the electrochemical treatment (Clostridium beijerinckii) [%],inhibition at 500 µg/mL [3] [%],toxicity reduced by the electrochemical treatment [4] [%]
"O=Cc1ccco1 [Furfural, furfural]",0,100,0,100,1.8 V,,,
"COc1cc(C=O)cc(OC)c1O [Syringaldehyde, syringaldehyde]",0.109,78.2,0.0265,94.7,2 V,,,
"COc1cc(C=O)ccc1O [Vanillin, vanillin]",0.251,49.8,0.089,82.2,2 V,,,

# Second part, led by results:
"Post-treatment concentration [1, 5] [g/L]","Removal rate [1, 5] [%]",Post-treatment concentration ([1]; 2nd treatment) [g/L],Removal rate ([1]; 2nd treatment) [%],oxidation peak voltage [2],Structure (SMILES),decrease in butanol production recovered by the electrochemical treatment (Clostridium beijerinckii) [%],inhibition at 500 µg/mL [3] [%],toxicity reduced by the electrochemical treatment [4] [%]
0.3475,30.5,0.1155,76.9,800 mV,"COc1cc(/C=C/C(=O)O)ccc1O [Ferulic acid, ferulic acid]",,,
0,100,0,100,1.8 V,"O=Cc1ccc(CO)o1 [HMF, 5-hydroxymethylfurfural]",,,
0.25,50.0,0.11,78.0,800 mV,"O=C(O)/C=C/c1ccc(O)cc1 [p-Coumaric acid, p-coumaric acid]",~100,~100,~100
